From patent US10208007B2, “Use of strigolactones and strigolactone analogs for treating proliferative conditions” (The State of Israel, Ministry of Agriculture & Rural …, priority 2011, dated 2019)

How the values were obtained:
Candida oleophila = assay: Yeast cell culture growth (OD); assay type: cell-based; settings: 10 μM, apparent 8 hours after application
Protocol: Saccharomyces cerevisiae and Candida oleophila yeast cells were grown overnight in a reach nutrient media at 28° C., at 150 rpm. Following, they were diluted to 0.4 OD in low nutrient media (Lily) and were divided into 96 wells. The cells were treated with GR-24 or ST-362, at the indicated concentrations. Cell culture growth was monitored every hour for 17 hours, at 28° C., with gentle shake before each OD read. OD was determined using fluorometer. Statistical differences between curves were analyzed using compareGrowthCurves function from the Statistical Modeling package, statmod (http://bioinf.wehi.edu.au/software/compareCurves/), significance was determined once P≤0.05.

pP38 = assay: Immunoblot with densitometric quantification; assay type: cell-based, human
Protocol: Protein concentration was determined using the BCA Protein Assay (Pierce), and 20-50 μg of lysate were separated in a 4-12% SDS-PAGE gel. After transfer, membranes were blocked for 15-30 min at room temperature in 5% BSA (Sigma) in Tris-buffered saline containing 0.1% Tween-20. Primary antibody was incubated for either 1.5 hours at room temperature or overnight at 4° C. Secondary antibody was incubated for 30-45 min at room temperature, and proteins were visualized with West Pico Stable (Pierce). […]
Densitometric quantifications were carried out using ImageJ software (NIMH).
To investigate the signaling mechanisms elicited by strigolactone analogs in cancer cells, MDA-MB-231, DU145 and HCT116 cells were treated with strigolactone analogs for 1, 4 or 8 hours and lysates were analyzed by immuno-blotting. […]
Immunoblot analysis of MDA-MB-231 and HCT116 cells treated with strigolactone analogs was performed. […] At 4 hours and 8 hours, pP38 levels increased 5 fold and 13 fold respectively following ST-362 treatment compared to vehicle controls (FIG. 13B—a bar graph showing densitometric quantification of pP38 levels as shown in FIG. 13A). […]

[1] = test system: MCF-7 secondary mammospheres; assay: cells; assay type: cell-based; settings: Homo sapiens, MCF7, 120 h
Protocol: Adherent cells were gently trypsinized, (0.05% trypsin/EDTA) washed twice in PBS and filtered through a […] cell sieve to obtain a single cell suspensions. Cells were diluted to a concentration of 10,000 cell/ml in serum-free phenol-red free MEBM (MEGM Bulletkit, Lonza) supplemented with 5 μg/ml bovine insulin, 20 ng/ml recombinant epidermal growth factor, 20 ng/ml basic fibroblast growth factor (Gibco), 1×B27 supplement, 0.5 μg/ml hydrocortisone (MEGM Bulletkit, Lonza). For MDA-MB-231 mammosphere cultures serum-free phenol red-free CnT-27 medium with growth additives (CellnTEC Advanced cell systems, Bern, Switzerland) was used as previously described. 0.1 ml was seeded per well of a Ultralow attachment 96 well plates. The following day the indicated doses of GR-24 (ppm) or vehicle alone (0.6% acetone f/c) were added. Media was replenished every 3-4 days. Self-renewal capacity of the mammospheres was determined by re-plating and producing further generations of mammospheres. Secondary mammospheres were cultivated by dissociation (trypsinization with gently vortexing) of 10-14 day old primary mammospheres. Single cell suspensions were obtained as described above.
Mammosphere viability was assessed by XTT assay (ATCC). 5 days after addition of the indicated concentrations of GR-24, cell viability was determined. […] To further investigate GR-24 induced inhibition of mammosphere formation, the expression of breast stem cells markers were examined.

[2] = test system: breast cancer cells both luminal (estrogen receptor positive) and basal (estrogen receptor negative); assay: IC50 by number of cells per well versus control cultures; assay type: cell-based
Protocol: The IC50 values are defined herein as that concentration of active ingredient at which the number of cells per well at the end of the incubation period is only 50% of the number of cells in the control cultures. The IC50 values thus determined are, for the compounds of formula II, approximately from 0.1 to 50 μmoliliter.

[3] = read-out: Mammosphere viability

Compound | Cell culture growth (Candida oleophila) | pP38 levels increase compared to vehicle controls (pP38; MDA-MB-231, 4 hours) [fold] | pP38 levels increase compared to vehicle controls (pP38; MDA-MB-231, 8 hours) [fold] | viability at 2.5 ppm [1, 3] [%] | viability at 5 ppm [1, 3] [%] | cytotoxicity at 5 ppm ([1]; read-out: Reduction of viability) [%] | IC50 value [2]
CC1=CC(O/C=C2/C(=O)c3c(c4cc(-c5scc6c5OCCO6)ccc4n3C)C2C)OC1=O (stereo not shown) [ST-362, (2E)-2-[(2,5-dihydro-4-methyl-5-oxofuran-2-yloxy)methylene]-1,2-dihydro-7-(2,3-dihydrothieno[3,4-b][1,4]dioxin-7-yl)-1,4-dimethyl-cyclopenta[b]indole-3-(4H)-one] | reduction of cell culture growth | 5 | 13 | – | – | – | –
CC1=C[C@H](O/C=C2/C(=O)O[C@@H]3c4ccccc4C[C@H]23)OC1=O (relative stereo) [GR-24, (3aR*,8bS*,E)-3-(((R*)-4-methyl-5-oxo-2,5-dihydrofuran-2-yloxy)methylene)-3,3a,4,8b-tetrahydro-2H-indeno[1,2-b]furan-2-one] | – | – | – | 68.6 | 16.4 | ~80 | in the range of micromolar concentration
